These are literature values, as cited in patent publication US20220193065A1, “COMPOSITIONS AND METHODS TO TREAT NON-ALCOHOLIC FATTY LIVER DISEASES (NAFLD)” (Coherus Biosciences, Inc., priority 2019, published 2022).

For this series the following is noted: monotherapy; background statement.

On to `Cc1cc(F)c(C(=O)Nc2cccc(-c3nncn3C(C)C)n2)cc1-n1cnc(C2CC2)c1` [selonsertib], for which the “primary endpoint of the STELLAR-4 phase 3 clinical trial” value is “failed to meet the primary endpoint”.
